# Measurements published in patent publication US20170281806A1, “CHELATOR-TARGETING LIGAND CONJUGATES FOR CARDIOVASCULAR IMAGING” (priority 2009, published 2017).
# “Also recorded” adds a separate entry of the source.
# Assays:
# LAD zone = test: Ischemic memory, acute model: SPECT, ex vivo imaging, gamma well counting; format: in vivo, dog; settings: for activity in the LAD zone relative to the normal LCx zone (gamma well counter), FIG. 3: after reperfusion
# Protocol: FIG. 2. Time line of protocol concerning ischemic memory. LAD flow was reduced by 75% tightening of a snare occluder in dogs to produce resting ischemia for 90 minutes followed by full perfusion. 99mTc-EC-glucosamine was injected 15 minutes after reflow with SPECT performed at one hour post injection.
# In two dogs, LAD flow was reduced by 75% by tightening a snare occluder to produce resting ischemia for 90 minutes followed by full reperfusion. 99mTc-EC-glucosamine was injected 15 minutes after reflow with SPECT imaging performed at one hour post injection. No perfusion images were acquired in these studies, however, the perfusion image shown from another dog in the same position on the table is fused with the 99mTc-EC-glucosamine images for orientation purposes only (FIG. 2).
# The heart slides were divided into 96 segments and counted in a gamma well counter for microsphere flow, Tl-201 activity, and 99mTc-EC-glucosamine uptake.
# myocardium [1] = format: in vivo; settings: dog
# Protocol: In this model, one of the major coronary arteries, either the left anterior descending (LAD) or left circumflex (LCx) coronary artery and all visible collateral vessels are tied off for 120 minutes, followed by complete reflow of the vessels. The chest is closed and the dogs are recovered and followed for up to 8 weeks with MR and SPECT imaging. […] Autoradiography and gamma well counting of 99mTc activity is not possible when using a 99mTc perfusion agent at the same time as 99mTc-EC-glucosamine. […] It is possible that the improved labeling efficiency in the 72 hour and 1 week scans resulted from changes that were made in the instructions for reconsistituting the 99mTc-EC-glucosamine kits. […] This dog will undergo further imaging at 4 weeks and again at 7.5/8 weeks as described above.
# LV = format: in vivo, dog
# Text: In two dogs with right atrial pacing at 180 beats per minute (bpm) for 5 weeks, there was significant deterioration of cardiac ejection fraction at the 5 week timepoint with ejection fraction reduced to less than 25% in both cases.
# myocardium [2] = test: Ischemic memory, chronic model; format: in vivo, dog; settings: LAD flow reduced 90% for 90 minutes
# Protocol: In a third dog, the protocol above was modified to examine 99mTc-EC-glucosamine uptake at later time points after reperfusion. In addition, the severity of the ischemic insult was increased such that LAD flow was reduced by 90% rather than 75% for 90 minutes. 99mTc-EC-glucosamine uptake was assessed at 48 hours and one week after reperfusion.
Compound,"uptake by in vivo SPECT (LAD zone; LAD flow reduced 75% for 90 minutes, injected 15 minutes after reflow, SPECT one hour post injection)","activity in the LAD zone relative to the normal LCx zone (gamma well counter), FIG. 3 (LAD zone)",uptake in mildly ischemic areas (LAD zone; flow reduced by 20-40% of normal),"activity relative to the normal zone, central ischemic zone (LAD zone; flow reduced by 60-80% of normal)","uptake in central and border zone ischemic areas (LAD zone; segments by degree of flow reduction during ischemia, FIG. 4)",uptake in the heart (SPECT) (myocardium [1]; 48 hours post myocardial infarction),"uptake in the posterior wall (SPECT) (myocardium [1]; LCx occlusion, 72 hours post infarction, imaging 2 hours after injection)",uptake in the myocardium (SPECT) (myocardium [1]; baseline before infarction),"blood pool activity (LV; dog, in vivo)",uptake after reperfusion (myocardium [2]; 48 hours after reperfusion),uptake after reperfusion (myocardium [2]; one week after reperfusion),"uptake in the LV (SPECT) (LV; dogs, right atrial pacing 180 bpm for 5 weeks)"
99mTc-ethylenedicysteine (EC) glucosamine [99mTc-EC-glucosamine],focal 99mTc-EC-glucosamine hot spot in the apex of the heart; also recorded: focal hotspot,significantly higher,enhanced 99mTc-EC-glucosamine uptake,greater than 150%,enhanced,small focal hot spot,large amount of 99mTc-EC-glucosamine uptake,no 99mTc-EC-glucosamine uptake observed in the myocardium; also recorded: no 99mTc-EC-glucosamine was observed in the myocardium,significant amount of blood pool activity,uptake was observed,no uptake,
"[201Tl] [Tl-201, thallium-201, reference compound]",,slightly reduced,,,,,,,,,,
"CCOCC[PH+](CCOCC)CC[PH+](CCOCC)CCOCC.CCOCC[PH+](CCOCC)CC[PH+](CCOCC)CCOCC.[O]=[99Tc]=[O] [tetrofosmin, technetium Tc-99m tetrofosmin, reference compound]",,,,,,,,,,,,not completely homogenous
